≈ marks a conversion by molar mass, not a printed value. Like-named read-outs stand apart in the source and are kept apart here.
Key:
physchem = format: physicochemical
Description: (§1) Pharmaceutical compounds that interact with the 5-HT1A receptor are useful to treat a wide variety of central nervous system disorders, such as cognition disorders, anxiety disorders, and depression. Certain piperazine-piperidine compounds have shown utility as 5-HT1A receptor antagonists, agonists and partial antagonist/agonists. See, for example, U.S. Patent Publication No. 2007/0027160, filed Jun. 9, 2006, entitled “piperazine-Piperidine Antagonists And Agonists Of The 5-HT1A Receptor”. […] During development of 5-fluoro-8-{4-[4-(6-methoxyquinolin-8-yl)piperazin-1-yl]piperidin-1-yl}quinoline, it was discovered that the compound has a pH-dependent solubility. […] Therefore, the rate of systemic input of 5-fluoro-8-{4-[4-(6-methoxyquinolin-8-yl)piperazin-1-yl]piperidin-1-yl}quinoline will be dependent on the dissolution or solubilization of the compound. […] A controlled-release formulation to reduce the dose frequency of 5-fluoro-8-{4-[4-(6-methoxyquinolin-8-yl)piperazin-1-yl]piperidin-1-yl}quinoline would be beneficial for improving compliance and convenience. However, this type of formulation presents the challenge of maintaining the dissolution of the compound in the lower gastrointestinal tract where solubility is very low.

[1] = Preclinical half-life after IV bolus; format: in vivo; settings: Sprague-Dawley rats, 0.3 mg/kg IV bolus
Description: See, for example, U.S. Patent Publication No. 2007/0027160, filed Jun. 9, 2006, entitled “piperazine-Piperidine Antagonists And Agonists Of The 5-HT1A Receptor”.

[2] = Permeability characteristics in animal studies; format: in vivo
Description: as §1

Row | solubility (physchem; trisuccinate salt, pH greater than about six) | solubility (physchem; water, trisuccinate salt, aqueous, read-out: aqueous solubility) [µg/mL] | t1/2 [1] | permeability [2] | solubility (physchem; free base, water, read-out: water solubility) [µg/mL] | solubility (physchem; pH 2.4, aqueous buffer, pH about 2.4, read-out: solubility) [µg/mL] | solubility (physchem; pH 6, aqueous buffer, pH levels greater than about 6, read-out: solubility) [µg/mL] | solubility (physchem; pH 8.9, aqueous buffer, pH about 8.9, read-out: solubility) [µg/mL] | Structure (SMILES)
1 | sub-microgram per milliliter level | ~1000 | – | – | – | – | – | – | COc1cc(N2CCN(C3CCN(c4ccc(F)c5cccnc45)CC3)CC2)c2ncccc2c1.O=C(O)CCC(=O)O.O=C(O)CCC(=O)O.O=C(O)CCC(=O)O [5-fluoro-8-{4-[4-(6-methoxyquinolin-8-yl)piperazin-1-yl]piperidin-1-yl}quinoline trisuccinate]
2 | – | – | about one | high permeability | ~0.04 (≈ 0.0848 µM) | ~2200 (≈ 4670 µM) | < 1 | ~0.036 (≈ 0.0763 µM) | COc1cc(N2CCN(C3CCN(c4ccc(F)c5cccnc45)CC3)CC2)c2ncccc2c1 [5-fluoro-8-{4-[4-(6-methoxyquinolin-8-yl)piperazin-1-yl]piperidin-1-yl}quinoline]

From patent US20080226714A1, “SUSTAINED-RELEASE TABLET FORMULATIONS OF PIPERAZINE-PIPERIDINE ANTAGONISTS AND AGONISTS OF THE 5-HT1A RECEPTOR HAVING ENHANCED INTESTINAL DISSOLUTION” (WYETH, priority 2007, published 2008)
